This is an account of results in patent US11504379B2, “Amide compound, and Pin1 inhibitor, therapeutic agent for inflammatory diseases and therapeutic agent for cancer that use the same” (Hiroshima University, priority 2017, dated 2022).

One assay deals with T1, Pin1 (Homo sapiens, UniProt Q13526).
T1 construct: endogenous in cells; host or cells: 293T cells
Kind of assay: Cell-based Pin1 inhibition assay with AMPK phosphorylation level as index (293T cells). Also on record: key: +++: a higher level of AMPK phosphorylation is promoted, as compared with C1; ++: a similar level of AMPK phosphorylation is promoted, as compared with C1; +: a lower level of AMPK phosphorylation is promoted, as compared with C1; −: no or almost no promotion is found in AMPK phosphorylation. Particulars: compound at 100 μM for 30 minutes, then 10 mM 2-DG for one hour, pAMPK blot compared with C1. The procedure:
To evaluate the inhibitory activity of each compound synthesized in Example 1 against the function of Pin1, a cell-based assay was performed according to the method previously developed by the inventors (Yusuke Nakatsu et al., Journal of Biological Chemistry, 2015, Vol. 290, No. 40, pp. 24255-24266), in which the phosphorylation level of AMPK (AMP-activated protein kinase), a protein whose phosphorylation is inhibited by Pin1, was examined as an index.
Briefly, 293T cells were plated on a collagen-coated 24-well plate. Forty-eight hours later, each compound synthesized in the preceding example (at 100 μM) was added to the plate, and the plate was left to stand in an incubator for 30 minutes. Subsequently, 10 mM 2-DG was added to the plate, and one hour later, each sample was collected with a buffer containing mercaptoethanol and SDS.
SDS-PAGE and blotting were performed, and blocking was then performed with 3% BSA for 1 hour, according to conventional protocols. Subsequently, a pAMPK antibody (Cell Signaling; diluted 1:2000 in Can Get Signal Solution 1, Toyobo) as a primary antibody, and an HRP-linked anti rabbit IgG (GE Healthcare; diluted 1:4000 in Can Get Signal Solution 2, Toyobo) as a secondary antibody were allowed to react at ambient temperature for 1 hour prior to detection.
The inhibitory activity against the function of Pin1 was evaluated by comparing the inhibition levels between each compound and a known Pin1 inhibitor, C1, as indicated below: […]

Assay [1] concerns non-alcoholic steatohepatitis (NASH) model mice (HFDT). The experiment in a line: NASH treatment study in HFDT-fed NASH model mice. Particulars: for increase in liver weight / blood ALT (GPT) value, index of liver inflammation: HFDT NASH mice, 8 weeks; for increase in liver weight: FIG. 1 (A); for blood ALT (GPT) value, index of liver inflammation: FIG. 1 (B). The procedure: Animal experiments were performed using non-alcoholic steatohepatitis (NASH) model mice to test the compounds according to the present invention for the therapeutic effect on NASH.
NASH model mice (hereinafter referred to as “NASH mice”) were produced by feeding a high-fat diet containing trans fatty acids (HFDT) to individual male laboratory mice (C57BL/6J) for 8 weeks. […] In addition, a normal diet was given to individual male laboratory mice (C57BL/6J) for 8 weeks to prepare control mice.

A further assay concerns DU145 cells. Kind of assay: Cancer treatment study, DU145 tumors implanted in nude mice. In kind it is in vivo, nude mice (BALB/c-slc-nu/nu mice). Particulars: intraperitoneal 2.5 mg/kg/day, 5 times a week, 9 weeks, compared to control mice; for tumor size growth, first tumor (tumor volume ratio): FIG. 4 (A); for tumor size growth, second tumor (volume): FIG. 4 (B). The method, then: An animal experiment was performed using mice transplanted with cancer cells to test the therapeutic effects of the compounds according to the present invention on cancer.
A first tumor (DU145 cells) with Matrigel plug was implanted in the middle of the upper back of nude mice (BALB/c-slc-nu/nu mice).
Five weeks after the first implantation, a second tumor (DU145 cells) was implanted in the middle of the left and right sides of the back of the nude mice.
No compound was administered to a group of mice to prepare control mice.
The volume of the second tumor was so small and not measurable at the beginning of administration of each compound. Therefore, the result from the second tumor is expressed in volume (mm^3), but not in ratio.

Assay [2] concerns mice with induction of colitis. Particulars: oral administration; cited from earlier work.
Assay [3] has as its system NASH mice (methionine-choline-deficient diet). The experiment in a line: NASH treatment study in MCDD-fed NASH mice, liver sections with Azan staining. In kind it is in vivo, mice (C57BL/6J). Particulars: NASH mice given a MCDD, 8 weeks; intraperitoneal 2.5 mg/kg/day three times a week; FIG. 3 (C). The procedure:
Next, an animal experiment was performed on NASH mice that were produced by feeding a methionine-choline-deficient diet (MCDD).

The next assay concerns colon cancer model mice. Kind of assay: Colon cancer model mice (AOM/DSS) treatment study. Type of assay: in vivo. Particulars: oral 1.25 mg/kg/day three times a week from Day 6, dissected on Day 89, versus control. The method, then: Colon cancer model mice were produced by intraperitoneal administration of azoxymethane (AOM) at a dose of 12 mg/kg to laboratory mice on Day 1, and then starting a course consisting of 5-day oral administration of 3% sodium dextran sulfate (DSS) and 16-day no DSS administration, on Day 6, and repeating the course 4 times, to induce colon inflammation and subsequent cancer development.
On Day 89, the colon cancer model mice were dissected to count the number of developed colon cancer tissues and to measure tumor area occupied by a single colon cancer tissue (total tumor area/tumor tissue number).

The mark [4] stands for this setting: intraperitoneal 2.5 mg/kg/day or oral 5.0 mg/kg/day, three times a week.

T1 sequence (Q13526 whole entry): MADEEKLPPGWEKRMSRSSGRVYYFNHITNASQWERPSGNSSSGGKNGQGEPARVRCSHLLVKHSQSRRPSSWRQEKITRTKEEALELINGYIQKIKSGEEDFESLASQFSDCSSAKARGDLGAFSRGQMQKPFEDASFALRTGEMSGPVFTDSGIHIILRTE

As for `O=C(O)[C@@H](Cc1ccc2ccccc2c1)NC(=O)N1c2ccccc2C=Cc2ccccc21` [Compound H-164], the Pin1 inhibition activity entry on Pin1 is on record as “+”.

On to `COC(=O)[C@@H](Cc1ccc2ccccc2c1)NC(=O)n1c2ccccc2c2ccccc21` [Compound H-144], for which, in assay [1] (setting [4]), the “increase in liver weight” value was “significantly reduced” and the “blood ALT (GPT) value, index of liver inflammation” value is “decreased”. Also, in the assay on DU145 cells, the “tumor size growth, first tumor (tumor volume ratio)” value is “suppressed” and the “tumor size growth, second tumor (volume)” value is “suppressed”.

Consider `O=C(CC1c2ccccc2-c2ccccc21)N[C@H](Cc1ccc2ccccc2c1)C(=O)O` [Compound H-103], for which the Pin1 inhibition activity entry at Pin1 is on record as “+++”.

Consider `O=C(Cc1ccc2ccccc2c1)N[C@H](Cc1ccc2ccccc2c1)C(=O)O` [Compound H-158], for which the Pin1 inhibition activity entry at Pin1 is “++”.

With `O=C(N[C@H](Cc1ccc2ccccc2c1)C(=O)O)OCc1ccccc1` [Compound H-65, reference compound], the Pin1 inhibition activity result at Pin1 was “−”.

Regarding `O=C(O)[C@@H](Cc1ccc2ccccc2c1)NC(=O)N1c2ccccc2Oc2ccccc21` [Compound H-162], at Pin1, the Pin1 inhibition activity result is “++”.

On to `O=C(Cn1c2ccccc2c2ccccc21)N[C@H](Cc1ccc2ccccc2c1)C(=O)O` [Compound H-536], for which the Pin1 inhibition activity entry on Pin1 is on record as “+”.

Regarding `COc1ccc(-c2cc(C(=O)N[C@H](Cc3ccc4ccccc4c3)C(=O)O)c(C)o2)cc1` [Compound C1, (R)-2-(5-(4-methoxyphenyl)-2-methylfuran-3-carboxamido)-3-(naphthalene-6-yl)propanoic acid], in assay [2], the colitis development entry is reported as “prevention of colitis development”.

For `O=C(O)[C@@H](Cc1ccc2ccccc2c1)NC(=O)C1(O)c2ccccc2-c2ccccc21` [Compound H-101], on Pin1, the Pin1 inhibition activity result is given as “++”.

Consider `O=C(Nc1ccccc1Oc1ccccc1)N[C@H](Cc1ccc2ccccc2c1)C(=O)O` [Compound H-334], for which the Pin1 inhibition activity entry at Pin1 is “+++”.

Take `O=C(O)[C@@H](Cc1ccc2ccccc2c1)NC(=O)N1c2ccccc2CCc2ccccc21` [Compound H-178]: the Pin1 inhibition activity entry on Pin1 is “+++”.

As for `O=C(O)[C@@H](Cc1ccc2ccccc2c1)NC(=O)n1c2ccccc2c2ccccc21` [Compound H-163], in assay [1] (setting [4]), the “increase in liver weight” value is reported as “significantly reduced” and the “blood ALT (GPT) value, index of liver inflammation” value is “decreased”. Also, the “fat accumulation in liver tissue (microscopic observation)” value in assay [1] (NASH mice given a HFDT, FIG. 2 (C)) was “significantly reduced fat accumulation”. Further, in the assay on DU145 cells, the “tumor size growth, first tumor (tumor volume ratio)” value is “suppressed” and the “tumor size growth, second tumor (volume)” value is listed as “suppressed”. The Pin1 inhibition activity entry at Pin1 was “++”. For the same compound, in assay [3], the “fat accumulation in liver tissue (microscopic observation)” value is reported as “significantly reduced fat accumulation” and the “hepatic fibrosis (Azan staining)” value is “significantly inhibited”. In addition, the “number of colon cancer tissues” value with colon cancer model mice was “no significant difference”. In the assay with colon cancer model mice (FIG. 5), the “tumor area occupied by a single colon cancer tissue” value was “reduction in tumor area”.

With `COC(=O)c1ccc2cc(C(=O)N[C@H](Cc3ccc4ccccc4c3)C(=O)O)ccc2c1` [Compound H-62], the Pin1 inhibition activity entry at Pin1 was “+”.

In the case of `O=C(Nc1ccc(C(=O)c2ccccc2)cc1)N[C@H](Cc1ccc2ccccc2c1)C(=O)O` [Compound H-341], the Pin1 inhibition activity entry on Pin1 is given as “++”.

As to `O=C(N[C@H](Cc1ccc2ccccc2c1)C(=O)OCc1ccccc1)C1c2ccccc2-c2ccccc21` [Compound H-105], the Pin1 inhibition activity result on Pin1 is on record as “−”.

On to `COC(=O)[C@@H](Cc1ccc2ccccc2c1)NC(=O)Cn1c2ccccc2c2ccccc21` [Compound H-521], for which, on Pin1, the Pin1 inhibition activity entry was “+”.

Take `O=C(O)[C@@H](Cc1ccc2ccccc2c1)NC(=O)N(c1ccccc1)c1ccccc1` [Compound H-161]: the Pin1 inhibition activity result at Pin1 is “++”.

As to `O=C(N[C@H](Cc1ccc2ccccc2c1)C(=O)O)C1c2ccccc2-c2ccccc21` [Compound H-109], on Pin1, the Pin1 inhibition activity result is given as “+++”.

On to `O=C1C=CC(=O)c2c(O)cccc21` [Juglone, reference compound], for which the colitis development entry in assay [2] is on record as “prevention of colitis development”. For the same compound, the “increase in liver weight” value in assay [1] (oral 5.0 mg/kg/day three times a week) was “significantly reduced”.
